# Data from patent publication US20260234187A1, “ANTIMICROBIAL PEPTIDES” (MATERIAS S.R.L., priority 2020, published 2026).
# Read-outs that look alike come from different tables or passages of the source. Where no end group is shown, it is not given here.
# Assays:
# physchem = type: physicochemical; conditions: L or D configuration; ultrapure water, DMSO and DPBS
# Description: The tests were carried out in three of the most common solvents used in biological applications such as: ultrapure water; DPBS (Dulbecco's Phosphate Buffered Saline), i.e., a saline buffer containing potassium chloride (KCl), monobasic potassium phosphate (KH2PO4), sodium chloride (NaCl) and dibasic sodium phosphate (Na2HPO4-7H2O) and finally in an organic solvent such as dimethylsulfoxide (DMSO).
# [1] = type: physicochemical
# Description: The structural and conformational characterization of the RiLK1 peptide was assessed by investigating its secondary structure by ^1H NMR spectroscopy in H2O and in a micellar solution of SDS at a concentration of 150 mM to mimic the condition of the bacterial cell membrane.
# In fact, the representative structures of the RiLK1 peptide in water show a random orientation of both polar and hydrophobic amino acid side chains.
# The helical structure appears well defined and stabilized by hydrophobic interactions of amino acid residues located on the opposite face. It is important to note that, in this arrangement, all the charged side chains are iso-oriented and well prone to interact with the negatively charged surface of the SDS micelles. Furthermore, the two tryptophan residues within the RiLK1 sequence are located at an optimal distance for their mutual stacking, thus contributing to the stabilization of the helix. It should be pointed out that the ^1H NMR spectra of the peptide IDR-1018-K6 (described in patent application WO2019012158) could not be acquired in the presence of micellar solutions of SDS since it is not soluble at the concentrations required to carry out these assays. […] Therefore, it is possible to assert that the NMR analysis in the presence of SDS has shown that the RiLK1 peptide of the present invention is capable of adopting the helix conformation, whereas the IDR-1018-K6 peptide (object of patent WO2019012158) has poor solubility and a heterogeneous system not suitable for NMR structural characterization (Table 2).
# [2] = type: physicochemical; conditions: Tris HCL pH 7, 3 mM SDS
# Description: 0.1 g/L of RiLK1 peptide was dissolved in 10 mM Tris HCL at pH 7 and 3 mM SDS. The prepared samples were incubated for 24 hours at 4° C. or 25° C. and analysed at time zero and after 24 hours.
# [3] = type: physicochemical; set-up: α-helix (Bestsel) / β-sheet (Bestsel) / Random (Bestsel): unit not given here; conditions: 3 mM SDS; for Random (CONTIN-LL) / α-helix (CONTIN-LL) / β-sheet (CONTIN-LL): after a 24-hour incubation
# Description: 0.1 g/L of RiLK1 peptide was dissolved in 10 mM concentration solutions at different pHs, in particular: glycine-HCL buffer (pH 2); sodium acetate buffer (pH 4); tris-HCL buffer (pH 7); glycine-NaOH buffer (pH 9). After a 1-hour incubation at 25° C., samples of each solution containing 3 mM SDS were prepared.
# E. coli = experiment: bactericidal activity at 15 μM, CFU versus control; type: cell-based
# Description: (§1) The bactericidal activity of further AMP peptides according to the invention, in particular of the RiLK31 peptide (RLRWVKIWKK, SEQ ID NO:31) and the RiLK3 peptide (RLRWVRIWRR, SEQ ID NO:3), was tested. The bactericidal activity was expressed as a percentage of viable cells in terms of CFU (Colony Forming Units) in a bacterial sample exposed to each peptide compared to those in a control bacterial sample in the absence of the peptide. All tests were carried out with the same peptide concentration, corresponding to 15 μM.
# Listeria = experiment: bactericidal activity at 15 μM, CFU versus control; type: cell-based
# Description: as §1
# Salmonella = experiment: bactericidal activity at 15 μM, CFU versus control; type: cell-based
# Description: as §1
# Staphylococcus = experiment: bactericidal activity at 15 μM, CFU versus control; type: cell-based
# Description: as §1
substance,measurement,setting,value
"RLKWVRIWRR-NH2 [RiLK1, RLKWVRIWRR]",maximum concentration completely dissolved,physchem,≤ 10 mg/mL
same,solubility,[1],1000 µM
same,solubility,[1]; pH 4.4,900 µM
same,Random (Bestsel),"[2]; 4° C., t = 24 hours",47.5%
same,Random (DichroWeb CONTIN-LL),"[2]; 4° C., t = 24 hours",38%
same,α-helix (Bestsel),"[2]; 4° C., t = 24 hours",6.5%
same,α-helix (DichroWeb CONTIN-LL),"[2]; 4° C., t = 24 hours",25%
same,β-sheet (Bestsel),"[2]; 4° C., t = 24 hours",46%
same,β-sheet (DichroWeb CONTIN-LL),"[2]; 4° C., t = 24 hours",37%
same,Random (Bestsel),"[2]; 25° C., t = 24 hours",43.6%
same,Random (DichroWeb CONTIN-LL),"[2]; 25° C., t = 24 hours",37%
same,α-helix (Bestsel),"[2]; 25° C., t = 24 hours",6.8%
same,α-helix (DichroWeb CONTIN-LL),"[2]; 25° C., t = 24 hours",24%
same,β-sheet (Bestsel),"[2]; 25° C., t = 24 hours",49.7%
same,β-sheet (DichroWeb CONTIN-LL),"[2]; 25° C., t = 24 hours",39%
same,Random (Bestsel),[2]; t = 0,44.9%
same,Random (DichroWeb CONTIN-LL),[2]; t = 0,36%
same,α-helix (Bestsel),[2]; t = 0,17.9%
same,α-helix (DichroWeb CONTIN-LL),[2]; t = 0,21%
same,β-sheet (Bestsel),[2]; t = 0,37.1%
same,β-sheet (DichroWeb CONTIN-LL),[2]; t = 0,43%
same,Random (Bestsel),"[3]; pH 2, t = 0",44.4
same,Random (DichroWeb CONTIN-LL),"[3]; pH 2, t = 0",39%
same,α-helix (Bestsel),"[3]; pH 2, t = 0",18.5
same,α-helix (DichroWeb CONTIN-LL),"[3]; pH 2, t = 0",22%
same,β-sheet (Bestsel),"[3]; pH 2, t = 0",37
same,β-sheet (DichroWeb CONTIN-LL),"[3]; pH 2, t = 0",39%
same,Random (Bestsel),"[3]; pH 2, t = 24 hours",44.3
same,Random (DichroWeb CONTIN-LL),"[3]; pH 2, t = 24 hours",39%
same,α-helix (Bestsel),"[3]; pH 2, t = 24 hours",13.2
same,α-helix (DichroWeb CONTIN-LL),"[3]; pH 2, t = 24 hours",17%
same,β-sheet (Bestsel),"[3]; pH 2, t = 24 hours",42.5
same,β-sheet (DichroWeb CONTIN-LL),"[3]; pH 2, t = 24 hours",44%
same,Random (Bestsel),"[3]; pH 4, t = 0",52.4
same,Random (DichroWeb CONTIN-LL),"[3]; pH 4, t = 0",36%
same,α-helix (Bestsel),"[3]; pH 4, t = 0",7.7
same,α-helix (DichroWeb CONTIN-LL),"[3]; pH 4, t = 0",23%
same,β-sheet (Bestsel),"[3]; pH 4, t = 0",39.8
same,β-sheet (DichroWeb CONTIN-LL),"[3]; pH 4, t = 0",41%
same,Random (Bestsel),"[3]; pH 4, t = 24 hours",41.2
same,Random (DichroWeb CONTIN-LL),"[3]; pH 4, t = 24 hours",35%
same,α-helix (Bestsel),"[3]; pH 4, t = 24 hours",13.3
same,α-helix (DichroWeb CONTIN-LL),"[3]; pH 4, t = 24 hours",24%
same,β-sheet (Bestsel),"[3]; pH 4, t = 24 hours",45.5
same,β-sheet (DichroWeb CONTIN-LL),"[3]; pH 4, t = 24 hours",41%
same,Random (Bestsel),"[3]; pH 7, t = 0",45.4
same,Random (DichroWeb CONTIN-LL),"[3]; pH 7, t = 0",36%
same,α-helix (Bestsel),"[3]; pH 7, t = 0",15
same,α-helix (DichroWeb CONTIN-LL),"[3]; pH 7, t = 0",25%
same,β-sheet (Bestsel),"[3]; pH 7, t = 0",39.5
same,β-sheet (DichroWeb CONTIN-LL),"[3]; pH 7, t = 0",39%
same,Random (Bestsel),"[3]; pH 7, t = 24 hours",40.8
same,Random (DichroWeb CONTIN-LL),"[3]; pH 7, t = 24 hours",37%
same,α-helix (Bestsel),"[3]; pH 7, t = 24 hours",15.5
same,α-helix (DichroWeb CONTIN-LL),"[3]; pH 7, t = 24 hours",19%
same,β-sheet (Bestsel),"[3]; pH 7, t = 24 hours",43.8
same,β-sheet (DichroWeb CONTIN-LL),"[3]; pH 7, t = 24 hours",44%
same,Random (Bestsel),"[3]; pH 9, t = 0",44.4
same,Random (DichroWeb CONTIN-LL),"[3]; pH 9, t = 0",39%
same,α-helix (Bestsel),"[3]; pH 9, t = 0",13.7
same,α-helix (DichroWeb CONTIN-LL),"[3]; pH 9, t = 0",19%
same,β-sheet (Bestsel),"[3]; pH 9, t = 0",42
same,β-sheet (DichroWeb CONTIN-LL),"[3]; pH 9, t = 0",42%
same,Random (Bestsel),"[3]; pH 9, t = 24 hours",42.9
same,Random (DichroWeb CONTIN-LL),"[3]; pH 9, t = 24 hours",24%
same,α-helix (Bestsel),"[3]; pH 9, t = 24 hours",13.4
same,α-helix (DichroWeb CONTIN-LL),"[3]; pH 9, t = 24 hours",29%
same,β-sheet (Bestsel),"[3]; pH 9, t = 24 hours",43.8
same,β-sheet (DichroWeb CONTIN-LL),"[3]; pH 9, t = 24 hours",47%
same,Random (CONTIN-LL),[3]; Table 8: pH 2,39%
same,α-helix (CONTIN-LL),[3]; Table 8: pH 2,22%
same,β-sheet (CONTIN-LL),[3]; Table 8: pH 2,39%
same,Random (CONTIN-LL),[3]; Table 8: pH 4,36%
same,α-helix (CONTIN-LL),[3]; Table 8: pH 4,23%
same,β-sheet (CONTIN-LL),[3]; Table 8: pH 4,41%
same,Random (CONTIN-LL),[3]; Table 8: pH 7,36%
same,α-helix (CONTIN-LL),[3]; Table 8: pH 7,25%
same,β-sheet (CONTIN-LL),[3]; Table 8: pH 7,39%
same,Random (CONTIN-LL),[3]; Table 8: pH 9,39%
same,α-helix (CONTIN-LL),[3]; Table 8: pH 9,19%
same,β-sheet (CONTIN-LL),[3]; Table 8: pH 9,42%
same,bactericidal activity,E. coli,100%
same,bactericidal activity,Listeria,99.5%
same,bactericidal activity,Salmonella,100%
same,bactericidal activity,Staphylococcus,96.9%^
